Like-named read-outs stand apart in the source and are kept apart here.
What was measured:
[1] = tested on: BCAS mice; assay: Morris water maze (MWM) test in modified BCAS mice; format: in vivo, C57BL/6J mice
Description: Clinically, most patients with intracranial atherosclerotic stenosis suffer from permanent stenosis without occlusion. Therefore, to mimic clinical atherosclerotic stenosis with permanent carotid artery (CCA) hypoperfusion, a modified BCAS model was adapted by ligating the CCA guided with a 30 gauge needle (0.31 mm diameter) in the right CCA and a 33 gauge needle (0.21 mm diameter) in the left CCA with a 4-0 silk suture. […] Next, changes of total NKCC1 (tNKCC1) protein expression were surveyed in different brain regions at 2 and 4 wks post-surgery by immunofluorescence staining (IF). […] Therefore, in the rest of the study, the investigation was focused on its association to white matter GFAP^+ astrogliosis and lesion of CC and external capsul (EC) tracks. […] However, by 2 wks post-BCAS surgery, tNKCC1 immunofluorescence intensity in the CC tracks was increased by ˜3 folds (p<0.05), and further elevated to ˜6 folds by 4 wks (p<0.05, arrowhead). Data are mean±SEM, n=4, *p<0.05, **p<0.01. […] The upregulation of tNKCC1 and GFAP protein expression in the CC is correlated, with a Pearson's correlation coefficient of r=0.9 (p<0.001). […] In contrast, no elevated tNKCC1 protein was detected either in Iba1^+ microglia/macrophages or in Olig2+ oligodendrocytes (OL) at 4 wks post-BCAS surgery (FIG. 1D). Without wishing to be bound by theory, these findings indicate that upregulation of NKCC1 expression and activity in reactive astrocytes may play a critical role in white matter inflammation, OL death, and demyelination after BCAS. Next, whether administration of SPAK inhibitor ZT-1a reduces WML and improves cognitive functions was examined. Starting at 14 days after BCAS surgery in mice (male), either vehicle DMSO (Veh, 2 ml/kg) or ZT-1a (5 mg/kg, every 72 h, i.p) was administered every 3 days, until they were sacrificed at day 35 post-BCAS (FIG. 3A). […] Motor functions are similar in all groups and average swimming speeds were not different in the Sham-, Veh- and ZT-1a-treated mice. Data are mean±SEM, n=6 (Sham and ZT-1a) or 5 (Veh), *p<0.01 vs. sham, *p<0.05 vs. Veh.

[2] = tested on: Coil BCAS mice; assay: Coil BCAS model, delayed administration (NOR, MBP immunostaining, CBF, body weight); format: in vivo
Procedure: The efficacy of administration of ZT-1a starting at 4 wks post-BCAS surgery, when matter demyelination has reached its peak, was examined next. To test the reproducibility of these findings, in this pilot study, the Coil BCAS model was used by placing two microcoils (0.18 mm diameter) in each CCAs, a well-established model with CBF reduction and accompanied by ischemic lesion to white matter tracks, cortex, and hippocampus. Either vehicle DMSO (Veh, 2 ml/kg) or ZT-1a (5 mg/kg, every 72 h, i.p) was administered at 4-8 wks post-BCAS (i.e., during 28-56 days after coil-BCAS, every 3 days) (FIG. 7A). […] Then MBP expression levels were examined in these brains by immunostaining. […] Data are mean±SEM, n=5-8, *p<0.01 vs. sham, *p<0.05 vs. Veh.

[3] = target: SPAK (Homo sapiens, UniProt Q9UEW8); assay: Cellular inhibition of SPAK phosphorylation (pSer373); format: cell-based; settings: 50% inhibition of phosphorylation, n = 3, — = no inhibition
Description: (§1) 8. Cellular Activity Profile of Inhibitors with the Salicyclic Amide
(§2) A list of the compounds evaluated for their ability to inhibit phosphorylation of SPAK/NKCC1/KCC3 activity is illustrated in Table 1 below.

[4] = tested on: NKCC1; assay: Cellular inhibition of NKCC1 phosphorylation (pThr203); format: cell-based; settings: Isotonic conditions; n = 3; — = no inhibition; read-out: NKCC1 pThr203 (μM) Iso
Description: as §1, §2

Question: Which results are given for `Cc1cc(C(C#N)c2ccc(Cl)cc2)c(Cl)cc1NC(=O)c1cc(Cl)ccc1O` (stereo not shown) [1a (ZT-1a)]?
Answer: escape latency in MWM test ([1]; 5 mg/kg i.p. every 72 h from day 14 after BCAS, 4 wks post-BCAS, vs Veh-treated BCAS mice): significantly less escape latency; time in the target quadrant, spatial probe trial ([1]; 5 mg/kg i.p. every 72 h from day 14 after BCAS, mean±SEM, n=6, Veh 15.3±1.2 sec, p<0.05): 26.3 ± 4.3 s; average swimming speeds ([1]; Sham-, Veh- and ZT-1a-treated mice compared): not different; memory function in novel objective recognition test (NOR) ([2]; 5 mg/kg i.p. every 72 h at 4-8 wks post-BCAS): no memory function impairment; body weight changes ([2]; 5 mg/kg i.p. every 72 h at 4-8 wks post-BCAS, data not shown): No body weight changes; MBP levels in CC and EC tracts ([2]; delayed administration 4-8 wks post-BCAS, p<0.05): significantly increased; cerebral blood flow (CBF) ([2]; delayed treatment for four weeks, by 8 wks post-BCAS): significantly improved; IC50 ([3]; Hypotonic conditions, read-out: SPAK pSer373 (μM) hypo): 3 µM; IC50 ([3]; Isotonic conditions, read-out: SPAK pSer373 (μM) Iso): 1 µM; IC50 [4]: 1 µM

From patent publication US11925611B2, “Use of ZT-1A and analogs thereof to prevent and/or treat neurodegenerative and neurocognitive disorders” (United States Government as Represented by the Department …, priority 2021, dated 2024)
